In patent publication US20240325340A1, “ISOFORM SPECIFIC AGONISTS TARGETING AKT KINASE” (Thomas Jefferson University, priority 2021, published 2024):
Entries after “also recorded” stand apart in the source; their conditions may differ.

How the values were obtained:
recombinant pAkt1 = recombinant pAkt1 (Homo sapiens, UniProt P31749); assay: Recombinant phospho-Akt dephosphorylation by PP2A or total cellular phosphatase extracts (immunoblot pT308); format: biochemical; conditions: 60 μM compound, 30 minutes at 30° C.
recombinant pAkt1, sequence (P31749 whole entry): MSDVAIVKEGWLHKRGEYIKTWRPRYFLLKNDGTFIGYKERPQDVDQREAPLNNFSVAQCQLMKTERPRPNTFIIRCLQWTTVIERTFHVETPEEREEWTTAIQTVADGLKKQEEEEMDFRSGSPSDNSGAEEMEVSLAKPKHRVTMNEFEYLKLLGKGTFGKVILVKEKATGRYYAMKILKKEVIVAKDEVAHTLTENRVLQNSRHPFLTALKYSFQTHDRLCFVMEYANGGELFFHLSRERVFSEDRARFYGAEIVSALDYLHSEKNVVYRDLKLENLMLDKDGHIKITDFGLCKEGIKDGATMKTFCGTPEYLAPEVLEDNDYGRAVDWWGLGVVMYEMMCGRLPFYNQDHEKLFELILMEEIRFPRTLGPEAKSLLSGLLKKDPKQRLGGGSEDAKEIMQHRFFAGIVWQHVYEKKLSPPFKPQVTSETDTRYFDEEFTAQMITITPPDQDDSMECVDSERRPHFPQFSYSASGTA
Description: FIG. 1A: Recombinant phospho-Akt (50 ng) were pre-mixed with DMSO or with 40 μM 4H-Chromenes with carboxylate side chain (SC-79 and HA-14) or with 60 μM malononitrile side chain (T625) at 4° C. Then recombinant PP2A (70 ng PP2A-C) or total cellular phosphatase extracts were added and incubated for 30 minutes at 30° C. After incubation, protein extracts were subjected to immunoblot analysis using antibodies detecting phosphorylated Akt (T308), total Akt and PP2A catalytic subunit. FIG. 1B comprises a graph showing the percentage of Akt dephosphorylation at 30 minutes (Dephos. %) (n=6) *P<0.01 vs. DMSO.

Akt2-LT WT = biological target: T1, Akt2-LT WT (Homo sapiens, UniProt P31751); assay: Phosphorylation of heterologously expressed Akt2-LT WT in H9C2 myoblasts; format: cell-based; conditions: serum-free media, 2 hr
T1 construct: expressed in transfected cells; host or cells: H9C2 myoblasts
T1 sequence (P31751 whole entry): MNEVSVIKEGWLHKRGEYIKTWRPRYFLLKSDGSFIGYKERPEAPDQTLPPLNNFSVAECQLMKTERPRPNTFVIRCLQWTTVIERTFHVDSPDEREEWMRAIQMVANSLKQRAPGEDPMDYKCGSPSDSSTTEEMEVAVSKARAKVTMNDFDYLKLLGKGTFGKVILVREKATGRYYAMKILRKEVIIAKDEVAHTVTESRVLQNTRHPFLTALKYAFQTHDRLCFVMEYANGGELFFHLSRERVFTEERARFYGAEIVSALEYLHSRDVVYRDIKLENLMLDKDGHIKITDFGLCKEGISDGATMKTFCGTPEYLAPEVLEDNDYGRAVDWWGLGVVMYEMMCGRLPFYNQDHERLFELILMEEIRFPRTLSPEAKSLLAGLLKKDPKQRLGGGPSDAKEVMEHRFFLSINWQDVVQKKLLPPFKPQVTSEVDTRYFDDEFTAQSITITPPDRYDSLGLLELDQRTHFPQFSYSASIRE
Description: (§1) FIGS. 2A-2B: illustrate the finding that T625's position 6 analogues differentially activate Akt and induce cellular toxicity. FIG. 2A: To distinguish heterologous-expressed Akt from endogenous Akt, a 41 amino acid large tag containing the HA-epitope was fused with wild type Akt2 (Akt2-LT WT). H9C2 myoblasts over-expressing Akt2-LT WT were treated with insulin or indicated compounds in serum-free media for 2 hr. Phosphorylation of T309 and total Akt2 are shown. FIG. 2B: Cell images show A549 AT2 cell morphology after 24 hr of drug treatment.

[1] = test system: E17-Y18-I19 and R23-R25 mutated Akt kinase (Akt1-LT); assay: pT308 phosphorylation of mutated Akt1-LT constructs in H9C2 cells; format: cell-based; conditions: 2 μM insulin 15 minutes
Source text: FIGS. 3A-3D: illustrate a model of T625 C-6 interaction space within the Akt PH domain and biochemical validation of the model. FIG. 3A: Model of the Akt2 PH-domain bound to T625 where all residue numbering corresponds to the Akt2 sequence. The C-6 Cl group act as the most optimal structural mimetic of the phosphate's electrostatic interactions with Arg23 and surrounding residues. […] To distinguish heterologous-expressed Akt from endogenous Akt, a 41 amino acid large tag containing the HA-epitope was fused with Akt1 (Akt1-LT) and specific mutations were created by site-directed mutagenesis. H9C2 cells expressing the indicated mutant constructs were stimulated for 15 minutes with 2 μM insulin, then switch to serum-free medium with 30 μM T625 as indicated for 60 minutes. […] H9C2 cells expressing the indicated mutant constructs were stimulated for 15 minutes with 2 μM insulin, then switch to serum-free medium with 20 μM T625 as indicated for 90 minutes. Phosphorylation of T308 in Akt1-LT and endogenous Akt, HA and GAPDH loading control blots are shown. FIG. 3D: Graph of specific pT308 phosphorylation in the indicated Akt1-LT constructs with or without T625 treatment. N is indicated.

Akt [2] = assay: Ceramide and cathepsin G blockade of insulin activation of Akt in H9C2 myoblasts; format: cell-based; conditions: H9C2 myoblasts, 30 μM T625 with insulin, 30 minutes
Description: (§2) H9C2 myoblasts or neonatal rat myocytes were treated with neutrophil protease Cathepsin G (0.01 U/mL), 4 hr or with 100 μM C2-Ceramide (100 μM), 2 hr. Then cells were stimulated with insulin with or without 30 μM T625 for 30 minutes. Lysates were immunoblotted with the indicated antibodies.

Akt [3] = assay: Ceramide and cathepsin G blockade of insulin activation of Akt in neonatal rat myocytes; format: cell-based; conditions: 30 μM T625 with insulin, 30 minutes
Description: as §2

Akt [4] = assay: Aerosolized inhalation (FlexiVent) Akt activation in mouse lung; format: in vivo
Description: 8 week old (wk) wild type mice were deprived of food overnight. Anesthetized mice were intubated on the FlexiVent system and challenged with aerosolized inhaled insulin or T625 as indicated. Lung tissue was harvested 20 minutes after drug inhalation. Extracts were immunoblotted with indicated antibodies.
(§3) A FlexiVent system (SCIREQ) was used to deliver Akt activator, T625, directly to mouse lung. This procedure closely mimics the clinical application of inhaled insulin. […] Akt activators were also administered in the setting of mouse cardiac ischemia-reperfusion injury model (FIGS. 13A-13C). T625 was directly injected into the left ventricular free wall at the time of ischemic ligation of exteriorized heart. Also, to mimic clinical use, (IP) Akt activators were intraperitoneally injected within 10 min after ischemia initiation. It was shown that both directly applied and intraperitoneally injected Akt activators activated Akt in the heart. Finally, a splinted murine excisional wound model that mimic human wound healing was used. Akt activators were placed directly into the wound ring, mimicking the clinical topical application of growth factors.

Akt [5] = assay: Mouse cardiac ischemia-reperfusion injury model, Akt activation in heart; format: in vivo; conditions: directly injected or intraperitoneally injected after ischemic-ligation
Description: FIG. 13A: A schematic of ischemic-reperfusion procedure indicating drug injection time and heart harvest time. FIG. 13B: Illustrates immunoblots of pS473, Akt phospho-substrate, pPRAS40 and GAPDH in the WES auto-western system. After ischemic-ligation, T625 (0.8 μg in 20 μl PBS) were directly injected at three spots of exposed ventricular wall. Injected insulin was used as a control. FIG. 13C: Illustrates immunoblots of pT308, total Akt (tAkt) and GAPDH and quantified pT308/tAkt ratio. After ischemic-ligation, T620 and T625 were directly injected or intraperitoneally injected.
as §3, with “Akt activators were placed directly into the wound ring, mimicking the clinical topical application of growth factors.” left out

Compound stability = format: physicochemical
cells = assay: Cellular toxicity (cells not specified); format: cell-based
A549 AT2 cell = A549 AT2 cell morphology after 24 hr of drug treatment; format: cell-based, human; conditions: A549 AT2 cells
Description: as §1

A549 cells = assay: Cytotoxicity by release of lactate dehydrogenase (LDH) in A549 cells; format: cell-based, human; conditions: 40 μM, 24 hours, serum-free media
Description: Cytotoxicity was determined by the release of lactate dehydrogenase (LDH) into cell culture media. A549 cells were incubated with 40 μM of each compound for 24 hours in serum-free media (n=3 for each compound). FIG. 8B: A visual assessment of cell morphology after 24 hrs treatment with 40 μM of each compound in serum-free media. 100× images are shown.

Hacat cells [6] = assay: Cellular toxicity / cell morphology in Hacat cells after 24 hrs; format: cell-based, human; conditions: 40 μM
Hacat cells [7] = assay: Human keratinocyte migration (cell-free gap) assay; format: cell-based; conditions: 40 μM, 22 hr, serum-starved
Description: FIGS. 11A-11B illustrates the finding that Akt activators in human keratinocyte cell line induce VEGF secretion and enhanced cell migration. FIG. 11A: Human keratinocyte line, HaCat cells, was incubated with 20 μM of each Akt activators for 24 hours. Insulin (3.5 μg/ml) and IGF1 (100 ng/mL) treatment were used as positive control. […] HaCaT cells were plated into silicone insert molds with a […] defined cell-free gap (Ibidi) and serum-starved overnight. Then, the mold barrier was removed and cells were treated with 40 μM T620. After 22 hr, the gap spaces were imaged at 100×. Two images of control and four images of T620 treated gap spaces are shown.

Akt [8] = assay: Splinted murine excisional skin wound model, topical treatment; format: in vivo, mouse; conditions: 20 μL of 40 μM applied within the wound silicone circle, 20 min
Description: FIGS. 14A-14B illustrate the use of an Akt activator as topical treatment for healing mouse skin wound. […] 20 μL of indicated compounds were applied within the skin wound silicone circle for 20 min. Wound tissues were harvested and blotted with anti-Akt pS473 and GAPDH using the Proteinsimple WES system. Growth factor (GF) mixture (insulin, PDGF and IGF1 growth factor) or 40 μM T620 in corn oil or in PBS as vehicles. […] Images of WT mouse skin wound after vehicle (0.7% DMSO in PBS) or 40 μM T620 treatment at Day 3. Wound images and hematoxylin sections showing wound edge and wound bed are shown. Scale bar=400 μm.
as §3, with “Akt activators were placed directly into the wound ring, mimicking the clinical topical application of growth factors.” left out

SMILES | block of recombinant pAkt1 dephosphorylation by PP2A and cellular phosphatases (recombinant pAkt1) | Akt activation in cells (phosphorylation of T309 of Akt2-LT WT) (Akt2-LT WT) | effect on phosphorylation of mutated Akt kinase ([1]; E17-Y18-I19 and R23-R25 mutants, then 30 μM T625 60 minutes) | effect on phosphorylation of mutated Akt kinase ([1]; mutations in E17 and/or 119, then 20 μM T625 90 minutes) | rescue of ceramide and cathepsin G blockade of Akt activation by insulin (Akt [2]) | rescue of ceramide and cathepsin G blockade of Akt activation by insulin (Akt [3]) | Akt kinase activation in mouse lung (Akt [4]; 60 μg, delivered directly to mouse lung by FlexiVent) | insulin sensitivity in vivo (Akt [4]; aerosolized inhaled, lung tissue harvested 20 minutes after inhalation) | Akt activation in mouse lung tissue in combination with insulin (Akt [4]; suboptimal dose 15 μg with suboptimal insulin dose 5 μg) | Akt activation in mouse heart during ischemia-reperfusion (Akt [5]) | compound stability (Compound stability) | cellular toxicity (cells) | cellular toxicity (cell morphology) (A549 AT2 cell) | cellular toxicity (LDH release) (A549 cells) | cellular toxicity (Hacat cells [6]) | keratinocyte migration (Hacat cells [7]) | Akt activation (pS473) within mouse skin wounds (Akt [8])
N#CC1=C(N)Oc2ccc(Cl)cc2C1C(C#N)C#N (centres unmarked) [T625, 2-(2-amino-6-chloro-3-cyano-4H-chromen-4-yl)propanedinitrile] | block recombinant pAkt1 dephosphorylation by PP2A and cellular phosphatases | retaining Akt activation; also recorded: activate Akt | acts as an inhibitor | converting the T625 response from activation to inhibition | rescues ceramide and cathepsin G blockade of Akt activation | rescues ceramide and cathepsin G blockade of Akt activation | retaining Akt activation; also recorded: robustly activated Akt kinase in mouse lung | enhanced insulin sensitivity | cooperated with suboptimal insulin dose (5 μg) to activate Akt in mouse lung tissue | enhanced Akt activation in mouse heart | enhanced compound stability | dramatically reduced cellular toxicity | – | – | – | – | –
N#CC1=C(N)Oc2ccc([N+](=O)[O-])cc2C1C(C#N)C#N (centres unmarked) [T620, 2-(2-amino-3-cyano-6-nitro-4H-chromen-4-yl)propanedinitrile] | – | preserved Akt activation; also recorded: activate Akt | – | – | – | – | – | – | – | enhanced Akt activation in mouse heart | – | reduced toxicity | greatly reduced toxicity | low toxicity; also recorded: failed to show significant cellular toxicity; also recorded: reduced cellular toxicity | failed to show significant cellular toxicity | enhance human keratinocyte migration | activated Akt within mouse skin wounds
